The values that follow come from patent US20260083728A1, “COMPOUNDS FOR TREATING INFECTIONS WITH PARASITIC PROTOZOA” (OHIO STATE INNOVATIION FOUNDATION, priority 2022, published 2026).

Data set [1] concerns L. donovani LV82 promastigotes. The data set is described as follows: Promastigote assay (proliferation). The format is cell-based. To be noted: Leishmania donovani, n ≥ 3 independent experiments.
Method: Promastigote assay. The effect of the compounds on the proliferation of Leishmania donovani LV82 strain parasites (MHOM/ET/67:LV82) was carried out as outlined by Feng et al.^26
Data set [2] deals with intracellular L. donovani LV82 parasites. The data set is described as follows: L. donovani-infected macrophage assay (high content imaging). To be noted: for effect on intracellular parasites: at non-toxic concentrations. It is filed as cell-based, Leishmania donovani. The source says: (§1) Evaluation in an infected macrophage model. Four of the compounds described above were selected for evaluation in an L. donovani infected macrophage model. […] An image-based assay employing murine peritoneal macrophages as host cells and DAPI as an indicator that was based on assays reported previously in the literature^23-24 was used to evaluate these compounds.
(§2) L. donovani-infected macrophage assay. The efficacy of selected target compounds against intracellular L. donovani LV82 parasites was conducted using murine peritoneal macrophages as the host cell in a high content imaging assay essentially as described by Joice et al.^24 and Abdelhameed et al.^28, with the following modifications. The density of peritoneal macrophages was 5×10^4 host cells/well, with the parasite/macrophage ratio remaining at 5:1. The concentration of 4,6-diamidino-2-phenylindole (DAPI) employed for nuclear staining was 4 μM. […] For the quantification of the infection, macrophage nuclei were selected first by DAPI staining with area larger than 30 μm^2. The cytoplasm was selected consequentially based on the nuclei with the digital phase contrast (DPC) channel. Parasites in the cytoplasm were selected based on relative intensity. Parasites per macrophage in each well were exported to a CSV file to generate dose responses, with data analysis performed as described by Joice et al.^24

Data set [3] deals with J774 macrophages. The data set is described as follows: J774 macrophage assay. The format is cell-based. The conditions noted are these: Mus musculus; J774 murine macrophages; n ≥ 3 independent experiments.
Method: J774 macrophage assay. This assay was performed as reported by Zhu et al.^27
The target of data set [4] is L. donovani CYP5122A1 (Leishmania donovani, UniProt Q2XQE3). The data set is described as follows: Leishmania CYP5122A1 inhibition assay. It is filed as biochemical. To be noted: comparator 18a.
Method: (§3) Leishmania CYP51 and CYP5122A1 assays. The cloning, expression, purification, and inhibition assays performed with L. donovani CYP51 and CYP5122A1 were conducted as described in Wang et al.^19
Data set [5] concerns murine peritoneal macrophages. The data set is described as follows: Host cell toxicity in the infected macrophage assay. The conditions noted are these: for host cell toxicity: 25 μM and below; for toxicity to host cells: 50 μM. It is filed as cell-based.
Text: as §1, §2

Data set [6] addresses L. donovani CYP51 (Leishmania donovani, UniProt A0A3S7WRS7). The data set is described as follows: Leishmania CYP51 inhibition assay. The format is biochemical. To be noted: comparator 18a.
Method: as §3
The mark [7] stands for this setting: murine peritoneal macrophages as host cells, n=3 determinations.

L. donovani CYP5122A1, sequence (Q2XQE3 entry or part of it): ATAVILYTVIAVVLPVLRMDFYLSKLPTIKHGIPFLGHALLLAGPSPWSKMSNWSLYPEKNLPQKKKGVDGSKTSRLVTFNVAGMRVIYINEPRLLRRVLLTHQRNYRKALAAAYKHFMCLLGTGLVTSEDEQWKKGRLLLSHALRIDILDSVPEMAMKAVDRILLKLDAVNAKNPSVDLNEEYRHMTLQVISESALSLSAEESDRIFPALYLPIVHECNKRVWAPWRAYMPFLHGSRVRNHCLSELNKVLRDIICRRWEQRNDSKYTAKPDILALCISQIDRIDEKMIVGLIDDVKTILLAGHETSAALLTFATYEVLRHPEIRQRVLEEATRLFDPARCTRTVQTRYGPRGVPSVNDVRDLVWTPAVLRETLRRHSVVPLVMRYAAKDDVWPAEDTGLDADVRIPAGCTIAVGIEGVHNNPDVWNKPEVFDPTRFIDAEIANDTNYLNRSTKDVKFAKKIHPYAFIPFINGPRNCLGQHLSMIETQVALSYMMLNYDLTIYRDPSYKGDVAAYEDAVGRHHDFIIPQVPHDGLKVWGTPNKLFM
L. donovani CYP51, sequence (A0A3S7WRS7 entry or part of it): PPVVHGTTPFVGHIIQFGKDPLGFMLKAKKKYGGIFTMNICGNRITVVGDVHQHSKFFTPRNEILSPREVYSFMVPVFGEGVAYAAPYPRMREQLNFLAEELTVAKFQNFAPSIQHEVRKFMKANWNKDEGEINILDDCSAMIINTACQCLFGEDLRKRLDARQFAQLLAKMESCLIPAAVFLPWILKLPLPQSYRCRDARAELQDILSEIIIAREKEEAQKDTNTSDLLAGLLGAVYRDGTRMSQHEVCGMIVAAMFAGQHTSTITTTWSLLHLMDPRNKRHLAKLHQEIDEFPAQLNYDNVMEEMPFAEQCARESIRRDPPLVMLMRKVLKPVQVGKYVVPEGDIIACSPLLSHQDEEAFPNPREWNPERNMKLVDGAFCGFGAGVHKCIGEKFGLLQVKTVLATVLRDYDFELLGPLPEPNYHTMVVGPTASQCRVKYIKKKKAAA

`Cc1cc(C)cc(NC(=O)N2CCN(Cc3ccncc3)CC2)c1` [Compound 4a, N-(3,5-dimethylphenyl)-4-(pyridin-4-ylmethyl)piperazine-1-carboxamide] had an EC50 in data set [1] of more than 50 µM.

On to `O=C(Nc1ccccc1)N1CCN(Cc2ccncc2)CC1` [Compound 4b, N-phenyl-4-(pyridin-4-ylmethyl)piperazine-1-carboxamide], for which the EC50 in data set [1] was more than 100 µM. The same measure, in the same setting: the value for `Cc1ccccc1NC(=O)N1CCN(Cc2ccncc2)CC1` [Compound 4c, 4-(Pyridin-4-ylmethyl)-N-(o-tolyl)piperazine-1-carboxamide] was more than 100 µM.

On to `Cc1cccc(NC(=O)N2CCN(Cc3ccncc3)CC2)c1` [Compound 4d, 4-(Pyridin-4-ylmethyl)-N-(m-tolyl)piperazine-1-carboxamide], for which the EC50 in data set [1] is more than 100 µM. The same measure, in the same setting: the value for `Cc1ccc(NC(=O)N2CCN(Cc3ccncc3)CC2)cc1` [Compound 4e, 4-(Pyridin-4-ylmethyl)-N-(p-tolyl)piperazine-1-carboxamide] was more than 100 µM; that for `Cc1cc(NC(=O)N2CCN(Cc3ccncc3)CC2)cc(C)c1C` [Compound 4f, 4-(pyridin-4-ylmethyl)-N-(3,4,5-trimethylphenyl)piperazine-1-carboxamide] was more than 50 µM. For `CC(C)(C)c1cccc(NC(=O)N2CCN(Cc3ccncc3)CC2)c1` [Compound 4g, N-(3-(tert-butyl)phenyl)-4-(pyridin-4-ylmethyl)piperazine-1-carboxamide], in data set [2], the “effect on intracellular parasites” value is recorded as “little effect”. This molecule also had an EC50 in data set [3] of more than 50 µM. `COc1cccc(NC(=O)N2CCN(Cc3ccncc3)CC2)c1` [Compound 4i, N-(3-methoxyphenyl)-4-(pyridin-4-ylmethyl)piperazine-1-carboxamide] showed an EC50 in data set [1] of more than 100 µM.

For the molecule `COc1ccc(NC(=O)N2CCN(Cc3ccncc3)CC2)cc1` [Compound 4j, N-(4-methoxyphenyl)-4-(pyridin-4-ylmethyl)piperazine-1-carboxamide], the EC50 in data set [1] was more than 100 µM. Same read-out and setting: the value for `COc1cc(NC(=O)N2CCN(Cc3ccncc3)CC2)cc(OC)c1` [Compound 4k, N-(3,5-dimethoxyphenyl)-4-(pyridin-4-ylmethyl)piperazine-1-carboxamide] was more than 100 µM. On the same count and under the same terms, the same measure for `CC(C)Oc1cccc(NC(=O)N2CCN(Cc3ccncc3)CC2)c1` [Compound 4l, N-(3-isopropoxyphenyl)-4-(pyridin-4-ylmethyl)piperazine-1-carboxamide]: more than 50 µM; for `O=C(Nc1ccccc1Cl)N1CCN(Cc2ccncc2)CC1` [Compound 4m, N-(2-chlorophenyl)-4-(pyridin-4-ylmethyl)piperazine-1-carboxamide]: more than 100 µM.

Regarding `O=C(Nc1cccc(Cl)c1)N1CCN(Cc2ccncc2)CC1` [Compound 4n, N-(3-chlorophenyl)-4-(pyridin-4-ylmethyl)piperazine-1-carboxamide], the EC50 in data set [1] was more than 100 µM. The same measure, in the same setting: the value for `O=C(Nc1ccc(Cl)cc1)N1CCN(Cc2ccncc2)CC1` [Compound 4o, N-(4-chlorophenyl)-4-(pyridin-4-ylmethyl)piperazine-1-carboxamide] was more than 100 µM; that for `O=C(Nc1cccc(F)c1)N1CCN(Cc2ccncc2)CC1` [Compound 4q, N-(3-fluorophenyl)-4-(pyridin-4-ylmethyl)piperazine-1-carboxamide] was more than 100 µM. Still for that read-out and setting: the same measure for `O=C(Nc1ccc(F)cc1)N1CCN(Cc2ccncc2)CC1` [Compound 4r, N-(4-fluorophenyl)-4-(pyridin-4-ylmethyl)piperazine-1-carboxamide]: more than 100 µM; for `O=C(Nc1cc(F)cc(F)c1)N1CCN(Cc2ccncc2)CC1` [Compound 4s, N-(3,5-difluorophenyl)-4-(pyridin-4-ylmethyl)piperazine-1-carboxamide]: more than 100 µM. `O=C(Nc1cccc(C(F)(F)F)c1)N1CCN(Cc2ccncc2)CC1` [Compound 4t, 4-(Pyridin-4-ylmethyl)-N-(3-(trifluoromethyl)phenyl)piperazine-1-carboxamide]: a half-maximal response in data set [1] (EC50) required 48 µM. Molecule `O=C(Nc1ccc(C(F)(F)F)cc1)N1CCN(Cc2ccncc2)CC1` [Compound 4u, 4-(Pyridin-4-ylmethyl)-N-(4-(trifluoromethyl)phenyl)piperazine-1-carboxamide] showed an EC50 in data set [1] of more than 50 µM.

Take `O=C(Nc1cc(C(F)(F)F)cc(C(F)(F)F)c1)N1CCN(Cc2ccncc2)CC1` [Compound 4v, N-(3,5-bis(trifluoromethyl)phenyl)-4-(pyridin-4-ylmethyl)piperazine-1-carboxamide]: the EC50 in data set [1] was approximately 10 µM. In data set [2], the “effect on intracellular parasites” value is given as “little effect”. Take `O=C(Nc1ccc(OCc2cc(C(F)(F)F)cc(C(F)(F)F)c2)cc1)N1CCN(CCCc2ccccc2)CC1` [Compound 18ab, N-(4-((3,5-bis(trifluoromethyl)benzyl)oxy)phenyl)-4-(3-phenylpropyl)piperazine-1-carboxamide]: the EC50 in data set [1] is more than 50 µM. Turning to `O=C(Nc1ccc(OCc2cc(C(F)(F)F)cc(C(F)(F)F)c2)cc1)N1CCN(CCc2ccncc2)CC1` [Compound 18e, N-(4-((3,5-bis(trifluoromethyl)benzyl)oxy)phenyl)-4-(2-(pyridin-4-yl)ethyl)piperazine-1-carboxamide], the “increase in inhibitory potency against CYP5122A1 compared to hit compound 18a” value in data set [4] is 3.4 fold. Moreover, in data set [2] (Leishmania donovani, Peritoneal macrophage, murine peritoneal macrophages as host cells, n=3 determinations, read-out: EC50 against intracellular L. donovani), the concentration giving a half-maximal response (EC50) worked out at 4 µM. Also, the “EC50 against intracellular L. donovani” value in data set [2] (setting [7]) is reported as “low micromolar range”. Also, in data set [5], the host cell toxicity entry is “lower” and the “toxicity to host cells” value is “exhibited toxicity to host cells”.

As to `COc1cc(COc2ccc(NC(=O)N3CCN(CCc4ccncc4)CC3)cc2)cc(OC)c1` [Compound 18g, N-(4-((3,5-dimethoxybenzyl)oxy)phenyl)-4-(2-(pyridin-4-yl)ethyl)piperazine-1-carboxamide], the “decrease in potency against CYP5122A1 compared to hit compound 18a” value in data set [4] came to 3.0 fold. For the same molecule, in data set [6], the “decrease in activity against CYP51 compared to hit compound 18a” value came out at 1.8 fold.

As for `CC(C)(C)c1cc(COc2ccc(NC(=O)N3CCN(CCc4ccncc4)CC3)cc2)cc(C(C)(C)C)c1` [Compound 18i, N-(4-((3,5-di-tert-butylbenzyl)oxy)phenyl)-4-(2-(pyridin-4-yl)ethyl)piperazine-1-carboxamide], in data set [4], the “increase in inhibitory potency against CYP5122A1 compared to hit compound 18a” value was 2.2 fold. For the same molecule, the “EC50 against intracellular L. donovani” value in data set [2] (setting [7]) is “low micromolar range”. For the same molecule, in data set [5], the host cell toxicity result is given as “lower” and the “toxicity to host cells” value is reported as “exhibited toxicity to host cells”.

For the molecule `O=C(Nc1ccc(OCc2cc(C(F)(F)F)cc(C(F)(F)F)c2)cc1)N1CCN(CCn2cccn2)CC1` [Compound 18o, 4-(2-(1H-pyrazol-1-yl)ethyl)-N-(4-((3,5-bis(trifluoromethyl)benzyl)oxy)phenyl)piperazine-1-carboxamide], in data set [1], a half-maximal response (EC50) required 30 µM. Take `O=C(Nc1ccc(OCc2cc(C(F)(F)F)cc(C(F)(F)F)c2)cc1)N1CCN(CCn2cncn2)CC1` [Compound 18q, 4-(2-(1H-1,2,4-triazol-1-yl)ethyl)-N-(4-((3,5-bis(trifluoromethyl)benzyl)oxy)phenyl)piperazine-1-carboxamide]: the EC50 in data set [1] and in data set [3] was more than 50 µM each time. Molecule `O=C(Nc1ccc(OCc2cc(C(F)(F)F)cc(C(F)(F)F)c2)cc1)N1CCN(CCc2ccccc2)CC1` [Compound 18r, N-(4-((3,5-bis(trifluoromethyl)benzyl)oxy)phenyl)-4-phenethylpiperazine-1-carboxamide] came in with an EC50 in data set [1] of more than 12.5 µM.

In turn, `COc1ccc(CCN2CCN(C(=O)Nc3ccc(OCc4cc(C(F)(F)F)cc(C(F)(F)F)c4)cc3)CC2)cc1` [Compound 18x, N-(4-((3,5-bis(trifluoromethyl)benzyl)oxy)phenyl)-4-(4-methoxyphenethyl)piperazine-1-carboxamide] displayed an EC50 in data set [3] of 8.3 µM.

By EC50 is commonly meant the concentration that produces a half-maximal response.
